The test system of one series is Jurkat T cells. Put plainly: Antiproliferative screening at 10 μM, MTS assay. The series is classed as cell-based, human. To be noted: for viability at 10 µM: Homo sapiens, read-out: Cell viability (%). How it is done:
The Jurkat T cell line was chosen for its reliability as a model for chemotherapeutic studies, particularly in T-cell leukemia.[13]
An MTS (3-(4,5-dimethylthiazol-2-yl)-5-(3-carboxymethoxyphenyl)-2-(4-sulfophenyl)-2H-tetrazolium inner salt) assay[20] was used to assess the leukemic cell viability. […] A total of 2 × 10^3 cells per 100 μL cell culture media were seeded into each well of a 96-well plate and incubated for 24 h. Then, tested compounds or reference drugs [6-mercaptopurine (Merck Millipore, Germany), methotrexate (Merck Millipore, Germany) and cytarabine (Merck Millipore, Germany)] were added, followed by incubation for 72 h. […] The absorbance in each well was measured at 490 nm using a microplate reader (Tecan NanoQuant Infinite M200 Pro, Austria). The percentage of cell viability was estimated by comparing absorbance in wells with the treated and untreated (vehicle control) cells using the following formula: ODtreated/ODuntreated × 100%. All experiments were performed in triplicate and repeated in three independent experiments. The GI50 values were calculated using sigmoidal concentration-response curves generated by the GraphPad Prism 8 program.[21]

Setting [1] is: Jurkat T cells, 10 μM, 72 h after treatment, MTS, mean of three independent experiments.

Like-named read-outs stand apart in the source and are kept apart here.

A word on the viability: it is a read-out of living cells in per cent, often relative to untreated cells. Broadly, the melting point is the temperature, or range, at which the solid turns liquid. Consider `Nc1nc(-c2ccc(OC(F)(F)F)cc2)nc(N2CCc3ccccc32)n1` [9{7,12}, 6-[4-(Trifluoromethoxy)phenyl]-4-(indolin-1-yl)-1,3,5-triazine-2-amine], for which the melting point was in the range of 195 to 196 °C. Besides, the viability at 10 µM with Jurkat T cells (setting [1]) stood at 73%.
Turning to `COc1ccc(-c2nc(N)nc(N3CCOCC3)n2)cc1` [9{5,9}], in the series with Jurkat T cells (setting [1]), the viability at 10 µM turned out to be 100%.
Turning to `CN1CCN(c2nc(N)nc(-c3ccc(OCc4ccccc4)cc3)n2)CC1` [9{4,15}, 6-[4-(Benzyloxy)phenyl]-4-(4-methylpiperazino)-1,3,5-triazine-2-amine], the melting point was 191 to 192 °C. Further, the viability at 10 µM in the series on Jurkat T cells (setting [1]) was 74%.
`COc1cc(-c2nc(N)nc(N3CCCC3)n2)cc(OC)c1OC` [9{1,17}, 6-(3,4,5-Trimethoxyphenyl)-4-pyrrolidino-1,3,5-triazine-2-amine] yielded a melting point of 213 to 214 °C. The viability at 10 µM in the series on Jurkat T cells (setting [1]) was 98%.
Turning to `CC1CCN(c2nc(N)nc(-c3ccc(N(C)C)cc3)n2)CC1` [9{3,8}, 6-[4-(N,N-Dimethylamino)phenyl]-4-(4-methylpiperidino)-1,3,5-triazine-2-amine], the melting point is 212 to 213 °C. In the series with Jurkat T cells (setting [1]), the viability at 10 µM came out at 84%.
`Nc1nc(-c2cccc(Oc3ccccc3)c2)nc(N2CCCC2)n1` [9{1,13}, 6-(3-Phenoxyphenyl)-4-pyrrolidino-1,3,5-triazine-2-amine] showed a melting point of 170 to 171 °C. Further, in the series with Jurkat T cells (setting [1]), the viability at 10 µM came out at 87%.
The compound `CN1CCN(c2nc(N)nc(-c3ccc(C(F)(F)F)cc3)n2)CC1` [9{4,11}, 6-[4-(Trifluoromethyl)phenyl]-4-(4-methylpiperazino)-1,3,5-triazine-2-amine] returned a melting point of 194 to 195 °C. Also, the viability at 10 µM in the series with Jurkat T cells (setting [1]) worked out at 100%.
On to `Nc1nc(-c2ccc(F)cc2)nc(N2CCCCC2)n1` [9{2,3}, 6-(4-Fluorophenyl)-4-piperidino-1,3,5-triazine-2-amine], for which the melting point lay within 156 to 157 °C. In addition, the viability at 10 µM in the series with Jurkat T cells (setting [1]) turned out to be 98%.
Take `Cc1cccc(-c2nc(N)nc(N3CCN(C)CC3)n2)c1` [9{4,5}, 6-(3-Methylphenyl)-4-(4-methylpiperazino)-1,3,5-triazine-2-amine]: the melting point lay in the range of 194 to 195 °C. In addition, in the series on Jurkat T cells (setting [1]), the viability at 10 µM was found to be 95%.
With `CC(C)(C)c1ccc(-c2nc(N)nc(N3CCCC3)n2)cc1` [9{1,7}, 6-[4-(tert-Butyl)phenyl]-4-pyrrolidino-1,3,5-triazine-2-amine], the melting point was 196 to 197 °C. Also, the viability at 10 µM with Jurkat T cells (setting [1]) stood at 88%.
Consider `Nc1nc(-c2ccc(OCc3ccccc3)cc2)nc(N2CCOCC2)n1` [9{5,15}], for which the viability at 10 µM with Jurkat T cells (setting [1]) is 94%.
For `Nc1nc(-c2ccccc2)nc(N2CCCCC2)n1` [9{2,1}], the viability at 10 µM in the series with Jurkat T cells (setting [1]) is 100%.
As for `COc1cc(-c2nc(N)nc(N3CCN(C)CC3)n2)cc(OC)c1OC` [9{4,17}, 6-(3,4,5-Trimethoxyphenyl)-4-(4-methylpiperazino)-1,3,5-triazine-2-amine], the melting point was in the range of 234 to 235 °C. In addition, the viability at 10 µM in the series with Jurkat T cells (setting [1]) worked out at 100%.
Take `CN1CCN(c2nc(N)nc(-c3cccc(OCc4ccccc4)c3)n2)CC1` [9{4,14}, 6-[3-(Benzyloxy)phenyl]-4-(4-methylpiperazino)-1,3,5-triazine-2-amine]: the melting point was 117 to 118 °C. Also, in the series with Jurkat T cells (setting [1]), the viability at 10 µM was found to be 73%.
Consider `Nc1nc(-c2cccs2)nc(N2CCc3ccccc3C2)n1` [9{6,18}, 4-(3,4-Dihydroisoquinolin-2(1H)-yl)-6-(2-thienyl)-1,3,5-triazine-2-amine], for which the melting point lay in the range of 170 to 171 °C. Moreover, the viability at 10 µM with Jurkat T cells (setting [1]) amounted to 78%. Further, the “Antiproliferative activity against Jurkat T cells (in words)” value in the series with Jurkat T cells (screening concentration 10 μM, 72 h) is “inactive against Jurkat T cells”.
Take `Nc1nc(-c2cccc(Oc3ccccc3)c2)nc(N2CCOCC2)n1` [9{5,13}]: the viability at 10 µM with Jurkat T cells (setting [1]) came to 78%.
In turn, `COc1ccc(-c2nc(N)nc(N3CCN(C)CC3)n2)cc1` [9{4,9}, 6-(4-Methoxyphenyl)-4-(4-methylpiperazino)-1,3,5-triazine-2-amine] gave a melting point of 196 to 197 °C. For the same compound, the viability at 10 µM in the series on Jurkat T cells (setting [1]) was determined as 100%.
As to `Nc1nc(-c2cccc(F)c2)nc(N2CCOCC2)n1` [9{5,2}], in the series on Jurkat T cells (setting [1]), the viability at 10 µM was determined as 100%.
Regarding `Cc1ccc(-c2nc(N)nc(N3CCN(C)CC3)n2)cc1` [9{4,6}, 6-(4-Methylphenyl)-4-(4-methylpiperazino)-1,3,5-triazine-2-amine], the melting point was 220 to 221 °C. Moreover, the viability at 10 µM in the series on Jurkat T cells (setting [1]) is 100%.
`CN(C)c1ccc(-c2nc(N)nc(N3CCOCC3)n2)cc1` [9{5,8}]: the viability at 10 µM in the series with Jurkat T cells (setting [1]) is 100%.
For `Nc1nc(-c2ccc(C(F)(F)F)cc2)nc(N2CCc3ccccc32)n1` [9{7,11}, 6-[4-(Trifluoromethyl)phenyl]-4-(indolin-1-yl)-1,3,5-triazine-2-amine], the melting point is 227 to 228 °C. For the same compound, the viability at 10 µM in the series on Jurkat T cells (setting [1]) came out at 53%.
The corresponding values for `CN1CCN(c2nc(N)nc(-c3ccc(F)cc3)n2)CC1` [9{4,3}, 6-(4-Fluorophenyl)-4-(4-methylpiperazino)-1,3,5-triazine-2-amine] are 192 to 193 °C and 100%.
As for `COc1cc(-c2nc(N)nc(N3CCOCC3)n2)cc(OC)c1OC` [9{5,17}], the viability at 10 µM with Jurkat T cells (setting [1]) was found to be 100%.
Consider `COc1cc(-c2nc(N)nc(N3CCC(C)CC3)n2)cc(OC)c1OC` [9{3,17}, 6-(3,4,5-Trimethoxyphenyl)-4-(4-methylpiperidino)-1,3,5-triazine-2-amine], for which the viability at 10 µM with Jurkat T cells (setting [1]) stood at 95%.
As to `Cc1cccc(-c2nc(N)nc(N3CCOCC3)n2)c1` [9{5,5}], the viability at 10 µM in the series on Jurkat T cells (setting [1]) turned out to be 100%.
In turn, `Nc1nc(-c2cccc([N+](=O)[O-])c2)nc(N2CCCCC2)n1` [9{2,10}, 6-(3-Nitrophenyl)-4-piperidino-1,3,5-triazine-2-amine] yielded a melting point of 158 to 159 °C. For the same compound, the viability at 10 µM in the series on Jurkat T cells (setting [1]) came out at 100%.
With `CC1CCN(c2nc(N)nc(-c3ccc(Cl)cc3)n2)CC1` [9{3,4}, 6-(4-Chlorophenyl)-4-(4-methylpiperidino)-1,3,5-triazine-2-amine], the melting point was 168 to 169 °C. Further, the viability at 10 µM in the series on Jurkat T cells (setting [1]) was determined as 79%.
For `Cc1ccc(-c2nc(N)nc(N3CCCCC3)n2)cc1` [9{2,6}, 6-(4-Methylphenyl)-4-piperidino-1,3,5-triazine-2-amine], in the series on Jurkat T cells (setting [1]), the viability at 10 µM amounted to 100%.
`COc1ccc(-c2nc(N)nc(N3CCc4ccccc43)n2)cc1OC` [9{7,16}, 6-(3,4-Dimethoxyphenyl)-4-(indolin-1-yl)-1,3,5-triazine-2-amine] gave a melting point of 183 to 184 °C. The viability at 10 µM in the series on Jurkat T cells (setting [1]) came out at 67%.
Regarding `CN1CCN(c2nc(N)nc(-c3ccccc3)n2)CC1` [9{4,1}], in the series with Jurkat T cells (setting [1]), the viability at 10 µM was determined as 100%.
Consider `Cc1ccc(-c2nc(N)nc(N3CCOCC3)n2)cc1` [9{5,6}], for which, in the series with Jurkat T cells (setting [1]), the viability at 10 µM turned out to be 100%.
For `Nc1nc(-c2cccc(F)c2)nc(N2CCCC2)n1` [9{1,2}, 6-(3-Fluorophenyl)-4-pyrrolidino-1,3,5-triazine-2-amine], the melting point lay within 182 to 183 °C. Besides, the viability at 10 µM with Jurkat T cells (setting [1]) came to 100%.
`Nc1nc(-c2cccc(F)c2)nc(N2CCCCC2)n1` [9{2,2}, 6-(3-Fluorophenyl)-4-piperidino-1,3,5-triazine-2-amine] returned a melting point of 138 to 139 °C. In addition, in the series with Jurkat T cells (setting [1]), the viability at 10 µM came out at 62%.
In turn, `CN1CCN(c2nc(N)nc(-c3cccc([N+](=O)[O-])c3)n2)CC1` [9{4,10}, 4-(4-Methylpiperazino)-6-(3-nitrophenyl)-1,3,5-triazine-2-amine] showed a melting point of 226 to 227 °C. In the series on Jurkat T cells (setting [1]), the viability at 10 µM was found to be 100%.
For the compound `CC(C)(C)c1ccc(-c2nc(N)nc(N3CCOCC3)n2)cc1` [9{5,7}], in the series with Jurkat T cells (setting [1]), the viability at 10 µM is 60%.
`CN1CCN(c2nc(N)nc(-c3cccc(F)c3)n2)CC1` [9{4,2}, 6-(3-Fluorophenyl)-4-(4-methylpiperazino)-1,3,5-triazine-2-amine] came in with a melting point of 187 to 188 °C. Besides, the viability at 10 µM in the series on Jurkat T cells (setting [1]) amounted to 95%.
`COc1ccc(-c2nc(N)nc(N3CCc4ccccc43)n2)cc1` [9{7,9}, 6-(4-Methoxyphenyl)-4-(indolin-1-yl)-1,3,5-triazine-2-amine] returned a melting point of 219 to 220 °C. Besides, in the series with Jurkat T cells (setting [1]), the viability at 10 µM worked out at 85%.
As for `Nc1nc(-c2ccc(OC(F)(F)F)cc2)nc(N2CCOCC2)n1` [9{5,12}], in the series on Jurkat T cells (setting [1]), the viability at 10 µM was found to be 100%.
`Nc1nc(-c2ccc(F)cc2)nc(N2CCOCC2)n1` [9{5,3}]: the viability at 10 µM in the series with Jurkat T cells (setting [1]) came out at 100%.
Consider `Nc1nc(-c2ccccc2)nc(N2CCOCC2)n1` [9{5,1}], for which, in the series with Jurkat T cells (setting [1]), the viability at 10 µM was determined as 98%.
For `Nc1nc(-c2ccc(Cl)cc2)nc(N2CCOCC2)n1` [9{5,4}], in the series on Jurkat T cells (setting [1]), the viability at 10 µM is 100%.
For the compound `CC1CCN(c2nc(N)nc(-c3ccccc3)n2)CC1` [9{3,1}], the viability at 10 µM in the series with Jurkat T cells (setting [1]) worked out at 100%.
Consider `Nc1nc(-c2ccccc2)nc(N2CCCC2)n1` [9{1,1}], for which the viability at 10 µM with Jurkat T cells (setting [1]) was 100%.
Regarding `Nc1nc(-c2cccc(OCc3ccccc3)c2)nc(N2CCOCC2)n1` [9{5,14}], the viability at 10 µM in the series with Jurkat T cells (setting [1]) came out at 63%.
Take `COc1ccc(-c2nc(N)nc(N3CCOCC3)n2)cc1OC` [9{5,16}]: in the series on Jurkat T cells (setting [1]), the viability at 10 µM was 100%.
Take `Nc1nc(-c2cccs2)nc(N2CCOCC2)n1` [9{5,18}]: the viability at 10 µM with Jurkat T cells (setting [1]) stood at 77%.
With `CN1CCN(c2nc(N)nc(-c3ccc(Cl)cc3)n2)CC1` [9{4,4}, 6-(4-Chlorophenyl)-4-(4-methylpiperazino)-1,3,5-triazine-2-amine], the viability at 10 µM in the series on Jurkat T cells (Jurkat, 72 h) is 100%.

The values above are taken from article PMC10925993, “6-Aryl-4-cycloamino-1,3,5-triazine-2-amines: synthesis, antileukemic activity, and 3D-QSAR modelling” (RSC Advances, 2024).
